According to PMC10536132, “Arginine Gemini-Based Surfactants for Antimicrobial and Antibiofilm Applications: Molecular Interactions, Skin-Related Anti-Enzymatic Activity and Cytotoxicity” (Molecules, 2023):
Marks after values point to notes of the source that are not given here.

How the values were obtained:
[1] = tested on: methicillin-resistant Staphylococcus aureus (MRSA) ATCC 43300 biofilm; experiment: Biofilm inhibition, crystal violet; type: cell-based; conditions: 24 h contact, 2–128 μg/mL tested
Protocol: (§1) The ability of MRSA and P. aeruginosa to form biofilms on propylene surfaces in the presence of bis-Args was determined. The two bacterial cells were kept in contact with the gemini surfactants at different concentrations from 2 to 128 μg/mL for 24 h. Then, the percentage of biofilm inhibition was determined.
(§2) Antibiofilm activity was assessed against biofilm-producing strains of methicillin-resistant Staphylococcus aureus (MRSA) ATCC 43300 and Pseudomonas aeruginosa PAO1. Biofilm inhibition and eradication capacities of the gemini surfactants were evaluated against adherent bacterial biofilms grown in 96-well microtiter plates. Bacteria were grown overnight in tryptic soy agar at 37 °C for 24 h. The bacteria were suspended in lysogeny broth with glucose (1%) at 1.5 × 10^8 CFU/mL.
(§3) Biofilm inhibition procedure: 100 μL of the gemini surfactant at different concentration values was added to each well in a 96-well microplate, then, 100 μL of the diluted bacterial suspension was added to the wells. Two-fold serial dilutions of the gemini surfactants to be tested were used (2–128 μg/mL). Microtiter plates were incubated at 37 °C for 24 h. Spent growth media was then discarded and biofilm was fixed with 150 μL methanol for 10 min. After the plates were air dried, the biofilms were stained with 50 μL of 0.1 of % crystal violet for 25 min. The plates were rinsed with water and then 150 μL of 96% ethanol containing 10% acetic acid was added to all 96-well plates to dissolve the remaining crystal violet-stained biofilm. The absorbance value was recorded at 570 nm. Each assay was performed at least three times and the results were averaged.

[2] = tested on: Pseudomonas aeruginosa PAO1 biofilm; experiment: Biofilm inhibition, crystal violet; type: cell-based; conditions: P. aeruginosa PAO1, 24 h contact, 2–128 μg/mL tested
Protocol: as §1, §2, §3

[3] = tested on: methicillin-resistant Staphylococcus aureus (MRSA) ATCC 43300 biofilm; experiment: Biofilm eradication, crystal violet; type: cell-based; conditions: at 32 μg/mL
Protocol: (§4) The ability of these geminis to disperse and eradicate biofilms once formed on the propylene surfaces of the microtiter plates was evaluated using the same bacterial strains. […] The susceptibility of both biofilms against the tested surfactants was similar. At a low concentration of 32 μg/mL, C3(CA)2 and C3(LA)2 were able to eradicate around 60–70% of preformed biofilm; however, at this concentration, the […] hydrophobic compound, C3(OA)2, eradicated less than 30% of biofilm. At high concentrations, the eradication percentage is similar for all alkyl chains. […] In this case, at low concentrations, there is not a clear dependence between the antibiofilm properties and the spacer; however, at a high concentration, the best effectivity was obtained for the longer spacer chains.
as §2
(§5) Biofilm eradication procedure: For mature biofilm formation, 200 μL of the diluted bacterial suspension was added to each well in a 96-well microplate and incubated at 37 °C for 24 h. The wells were gently rinsed with phosphate-buffered saline (PBS) and 200 μL of the corresponding gemini surfactant solution was added to each well and incubated again at 37 °C for 24 h. Two-fold serial dilutions of the gemini surfactant were used (4–128 μg/mL). After the plates were air dried, the biofilms were stained with 50 μL of 0.1 of % crystal violet for 25 min. The plates were rinsed with water and then 150 μL of 96% ethanol containing 10% acetic acid was added to all 96-well plates to dissolve the remaining crystal violet-stained biofilm. The absorbance value was recorded at 570 nm. Each assay was conducted at least three times and the results were averaged.

[4] = tested on: Pseudomonas aeruginosa PAO1 biofilm; experiment: Biofilm eradication, crystal violet; type: cell-based; conditions: P. aeruginosa PAO1, at 32 μg/mL
Protocol: as §4, §2, §5

[5] = set-up: method as in doi:10.1021/la981295l; conditions: cited from earlier work
[6] = tested on: Gram-positive and Gram-negative bacteria; experiment: Minimum inhibitory concentration (MIC), broth microdilution; type: cell-based; conditions: planktonic bacteria, 24 h at 37 °C, values only in Figure 2
Excerpt: The Gram-positive bacteria tested include some problematic microorganisms such us L. monocytogenes; these bacteria cause listeriosis, a serious disease that has grown considerably in industrialized countries due to the increased ratio of immunosuppressed persons and the extensive use of refrigerated food. We have also tested the effectivity of these surfactants against methicillin-resistant Staphylococcus aureus (MRSA), which is known as a major cause of hospital-acquired infections and, at this time, is a remarkable public health problem. […] For comparison, this figure also includes the MIC values of a LAM (lauroyl arginine methyl ester) surfactant that can be considered the single-stranded homologue of these geminis and the BAC (benzalkonium ammonium chloride), a quaternary ammonium surfactant widely used as antiseptic.
Antimicrobial tests were carried out against the following microorganisms: Bacillus subtilis ATCC 6633, Staphylococcus epidermidis ATCC 12228, Staphylococcus aureus ATCC 29213, Listeria monocytogenes ATCC 15313, Enterococcus faecalis ATCC 29212, Escherichia coli ATCC 25922, Acinetobacter baumannii ATCC 19606, Klebsiella aerogenes ATCC 13048, methicillin-resistant Staphylococcus aureus ATCC 43300 and Pseudomonas aeruginosa PAO1. […] The growth of the microorganisms was determined visually after incubation for 24 h at 37 °C. […]

[7] = set-up: method as in doi:10.1021/la981295l; conditions: cited from earlier work; remark: listed apart in the source
[8] = Apparent pKa by direct titration with NaOH; type: physicochemical; conditions: aqueous solution, concentration above the minimum aggregation concentration; pH at semi-equivalence point
Protocol: In order to determine the ionization state of these gemini surfactants at the pH used to investigate their biological properties, the apparent acid pKa was determined for each of them. The pKap value has been determined by means of a direct titration with NaOH of an aqueous solution of each compound. The surfactant concentrations used were in all cases higher than the minimum aggregation concentration, thus avoiding possible deviations in the pK value due to the monomer–aggregate balance. The pKap values can be estimated from the pH at the semi-equivalence point that is reached when the molar ratio of protonated and non-protonated species is 1:1. In these conditions, we have that the pH = pKa.
The pKa value of each compound has been determined by means of a direct titration with NaOH of an aqueous solution of each compound. The pH was measured using the pH electrode Thermo Electron Corporation ORION 8103SC and the temperature was controlled by a thermostatic bath, Heto CBN 8-30. The pKa values can be estimated from the pH at the semi-equivalence point, which contains a 1:1 molar ratio of protonated and non-protonated species; at this point, pH = pKap.

[9] = tested on: squamous cell carcinoma (A431); experiment: Cell viability, NRU assay; type: cell-based; conditions: A431, surfactant in solution at 35.6 µg/mL, 24 h
Protocol: (§6) The immortal human keratinocyte (HaCaT) and the squamous cell carcinoma (A431) were obtained from Celltec, University of Barcelona. The cells were grown in DMEM medium (4.5 g/L glucose) supplemented with 10% (v/v) FBS, 2 mM L-glutamine, 100 U/mL of penicillin and 100 μg/mL of streptomycin at 37 °C under 5% CO2. Cells were routinely cultured in 75 cm^2 culture flasks and were trypsinized using trypsin-EDTA when reached approximately 80% of confluence.
(§7) HaCaT cells (1 × 10^5 cells/mL) and A431 cells (5 × 10^4 cells/mL) were grown at the defined densities into the central 60 wells of a 96-well microplate. Cells were incubated for 24 h under 5% CO2 at 37 °C. The medium was then removed and the cells were incubated with the surfactants (100 μL), previously diluted 1:1 (v/v), reaching a concentration of […] in DMEM medium supplemented with 5% FBS using two different colorimetric methods for quantification, as follows.
(§8) The accumulation of the neutral red dye in the lysosomes of viable, undamaged cells constitutes the basis of the neutral red uptake (NRU) assay. After the cells were incubated for 24 h with the corresponding systems at 35.6 µg/mL, the medium was removed and the surfactants´ solutions were incubated for 3 h with the NRU dye solution (50 μg/mL) dissolved in the medium without FBS and phenol red (Lonza). Cells were then washed with sterile PBS, followed by the addition of 100 μL of a solution containing 50% ethanol absolute and 1% acetic acid in distilled water to extract the non-adhered dye. The microplates were then stirred for 5 min at 25 °C to promote the dissolution. Finally, the absorbance of the resulting solutions was measured at λ = 550 nm using a Bio-Rad 550 microplate reader (Hercules, CA, USA).

bovine hyaluronidase = experiment: Hyaluronidase inhibitory activity; type: biochemical; conditions: negative inhibition values
Protocol: The hyaluronidase inhibitory activity was performed according to the method used by Altinyay et al. with some modifications. Briefly, a work solution containing bovine hyaluronidase (7900 units/mL) in 0.1 M acetate buffer (pH 3.6) was prepared. Fifty microliters of the work solution were mixed 1:1 with the surfactants’ solution in 5% DMSO. For the negative control, 50 μL of 5% DMSO was used, while EGCG was used as positive control. After 20 min of incubation at 37 °C, 50 μL of calcium chloride (12.5 mM) was added to the mixture and again incubated for 20 min at 37 °C. At that point, 250 μL sodium hyaluronate (1.2 mg/mL) was added and incubated for 40 min at 37 °C. After incubation, the mixture was treated with 50 μL of 0.4 M NaOH and 100 μL of 0.2 M sodium borate and then incubated for 3 min in a boiling water bath. After cooling to room temperature, 1.4 mL of p-dimethylaminobenzaldehyde solution was added to the reaction mixture, being further incubated at 37 °C for 20 min. The resulting colored solution was measured at λ = 585 nm (PerkinElmer-Lambda 35, Brazil). The hyaluronidase inhibitory activity of each sample was calculated according to the following formula:(3) Hyaluronidase inhibitory activity %=A1−A2/A1×100 where A1 and A2 represent the absorbance in the absence and presence of the testing sample, respectively.

[10] = Cell viability, NRU assay; type: cell-based, human; conditions: human, HaCaT cells (immortal human keratinocytes); NRU, HaCaT, surfactant in solution at 35.6 µg/mL, 24 h; read-out: cellular viability
Protocol: as §6, §7, §8

[11] = target: porcine pancreatic elastase (Sus scrofa, UniProt P00772); experiment: Elastase inhibitory assay; type: biochemical; conditions: 40 µL of 1000 µg/mL stock; EGCG 250 μM
Protocol: The elastase inhibition was tested according to the method described by […] et al.. First, a stock solution of each surfactant at 1000 μg/mL was prepared in sterile ultrapure water. A stock solution of porcine pancreatic elastase at 3.33 mg/mL in sterile ultrapure water was also prepared. The substrate […] (Ala) 3-p-nitroanilide was dissolved in 0.2 mM Tris-HCl buffer solution (pH 8.0). The samples (40 μL) were then diluted and incubated together with the enzyme for 15 min prior to the substrate addition. Negative control was sterile ultrapure water, while EGCG (250 μM or 0.114 mg/mL) was used as the positive control. The absorbance at λ = 410 nm was measured immediately after the substrate addition and continuously during the next 2 h using an Elx800 Microplate Reader (Biotek®). […] The anti-elastase activity (in %), determined in triplicate, was calculated according to the following equation:(2) Elastase inhibitory activity %=A1-A2/A1×100 where A1 and A2 represent the absorbance in the absence and presence of the testing samples, respectively.

[12] = set-up: method as in doi:10.1021/la981295l; conditions: cited from earlier work; remark: listed apart in the source

Sequence of porcine pancreatic elastase (P00772 27-266): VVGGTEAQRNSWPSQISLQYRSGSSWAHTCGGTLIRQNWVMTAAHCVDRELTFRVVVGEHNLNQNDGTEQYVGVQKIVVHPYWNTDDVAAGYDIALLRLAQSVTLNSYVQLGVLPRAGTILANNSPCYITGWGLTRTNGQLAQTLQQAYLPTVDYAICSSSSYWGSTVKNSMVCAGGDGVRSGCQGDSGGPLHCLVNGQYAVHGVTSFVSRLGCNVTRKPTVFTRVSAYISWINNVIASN

| Compound | concentration that inhibits biofilm formation [1] [µg/mL] | concentration that inhibits biofilm formation [2] [µg/mL] | preformed biofilm eradicated [3] | preformed biofilm eradicated [4] | CMC (mM) Fluorescence [5] | antimicrobial activity (MIC), in words [6] | CMC (mM) Conductivity [7] | pKap [8] | cytotoxicity, in words [9] | increase of hyaluronidase enzymatic activity (bovine hyaluronidase) [%] | viability at 24 h, 35.6 µg/mL [10] [%] | anti-elastase activity (inhibition) [11] [%] | CMC (mM) Surface Tension [12] | γcmc ([12]; surface tension at the cmc) |
| --- | --- | --- | --- | --- | --- | --- | --- | --- | --- | --- | --- | --- | --- | --- |
| CCCCCCCC(=O)NC(CCCNC(=N)N)C(=O)NCCCNC(=O)C(CCCNC(=N)N)NC(=O)CCCCCCC (stereo not drawn) [C3(OA)2] | 128 | 128 | less than 30% | less than 30% | 8 * mM | lowest antimicrobial efficiency (highest MIC values) |  |  |  |  |  |  |  |  |
| CCCCCCCCCCCC(=O)NC(CCCNC(=N)N)C(=O)NCC(O)CNC(=O)C(CCCNC(=N)N)NC(=O)CCCCCCCCCCC (stereo not drawn) [C3(LA)2OH, Bis (N^α-lauroyl arginine) (2-hydroxy-1,3-propane) diamide] |  |  |  |  | 0.6 * mM |  | 0.6 * mM | 10.9 |  |  |  |  |  |  |
| CCCCCCCCCCCC(=O)NC(CCCNC(=N)N)C(=O)NCCCCCCNC(=O)C(CCCNC(=N)N)NC(=O)CCCCCCCCCCC (stereo not drawn) [C6(LA)2] |  |  |  |  | 0.4 * mM |  | 0.4 * mM | 10.5 | did not cause any apparent cytotoxicity | 47.2 | 99.3 | 10.5 | 0.002 * mM | 30 * mN/m |
